From US20260167637A1, “NLRP3 INFLAMMASOME INHIBITOR AND USE THEREOF” (TransThera Sciences (Nanjing), Inc., priority 2022, published 2026) come the findings set out here.

What is called IC50 is the concentration that inhibits the measured activity by half.

The assay deals with T1, THP-1 cell NLRP3 (Homo sapiens, UniProt Q96P20).
T1 construct: endogenous in cells; host or cells: THP-1 cells, PMA-differentiated, stimulated with LPS and nigericin
T1 sequence (Q96P20 whole entry): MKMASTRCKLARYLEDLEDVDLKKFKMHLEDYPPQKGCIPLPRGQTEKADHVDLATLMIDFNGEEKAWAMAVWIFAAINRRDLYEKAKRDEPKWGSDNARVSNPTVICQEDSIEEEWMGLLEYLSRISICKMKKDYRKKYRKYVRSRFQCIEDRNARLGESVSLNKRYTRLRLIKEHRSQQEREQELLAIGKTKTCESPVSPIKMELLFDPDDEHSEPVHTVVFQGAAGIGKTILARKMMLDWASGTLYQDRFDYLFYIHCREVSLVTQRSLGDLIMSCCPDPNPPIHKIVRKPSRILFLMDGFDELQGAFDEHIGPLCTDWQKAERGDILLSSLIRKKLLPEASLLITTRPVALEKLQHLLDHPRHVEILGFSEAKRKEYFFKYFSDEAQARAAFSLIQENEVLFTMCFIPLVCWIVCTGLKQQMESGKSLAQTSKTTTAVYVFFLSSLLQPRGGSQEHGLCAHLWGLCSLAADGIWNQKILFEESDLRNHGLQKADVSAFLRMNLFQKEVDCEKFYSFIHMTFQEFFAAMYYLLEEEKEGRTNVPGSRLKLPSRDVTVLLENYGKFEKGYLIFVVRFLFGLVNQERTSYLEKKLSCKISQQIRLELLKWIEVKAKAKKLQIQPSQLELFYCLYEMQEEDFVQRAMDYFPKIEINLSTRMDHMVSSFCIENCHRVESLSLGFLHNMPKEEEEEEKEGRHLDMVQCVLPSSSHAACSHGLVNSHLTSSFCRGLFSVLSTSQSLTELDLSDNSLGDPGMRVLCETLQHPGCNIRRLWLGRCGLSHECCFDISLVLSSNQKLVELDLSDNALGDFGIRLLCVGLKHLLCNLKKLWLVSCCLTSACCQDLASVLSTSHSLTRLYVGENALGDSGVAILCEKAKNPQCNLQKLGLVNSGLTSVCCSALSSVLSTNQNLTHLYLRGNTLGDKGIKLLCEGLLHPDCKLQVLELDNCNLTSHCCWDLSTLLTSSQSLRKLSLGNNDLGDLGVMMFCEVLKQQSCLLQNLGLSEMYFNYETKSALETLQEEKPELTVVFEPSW
As to the kind of experiment: Inhibitory activity against cell NLRP3 inflammasomes in THP-1 cells (LPS + nigericin, ELISA of supernatant). The settings on record: PMA-differentiated THP-1 cells, LPS 500 ng/mL 3 h, compound 1 h, nigericin 30 min; human IL-10 (so in the source) in supernatant by ELISA. The class given is cell-based. As to the method: Experimental Example 1: Assay for Inhibitory Activity of Compounds Disclosed Herein Against Cell NLRP3 Inflammasomes
Test substances: The compounds of the present disclosure, prepared according to the methods described in the examples.
THP-1 is an immortalized human […] cell line.
Instrument: microplate reader (made by PE)
Assay Method: 1. THP-1 cells were cultured in 1640 complete medium (500 mL of 1640+56 mL of FBS+560 μL of 1000×P/S+2 μL of mercaptoethanol), and cells at passages 3-20 were used.
2. Culture plate coating: 100 μL of polylysine solution was added to a 96-well cell culture plate. After 30 min of incubation at 37° C., the solution was discarded, and the plate was washed with PBS twice for later use.
3. Induction of THP-1 differentiation: THP-1 cells were resuspended in an appropriate amount of complete medium containing 10 ng/mL PMA to form a cell suspension with a density of 5×10^5 cells/mL. The suspension was added to the 96-well plate at 100 μL/well, and the plate was incubated overnight in a 37° C. carbon dioxide cell incubator for 16 h.
4. Stimulation of THP-1: • a. Serum-free THP-1 culture medium containing LPS was added, with the final concentration being 500 ng/mL. The plate was incubated in a 37° C. carbon dioxide cell incubator for 3 h. • b. Mother liquors of the compounds to be tested with gradient concentrations were prepared with DMSO, added to the cells, and well mixed. Dilution was finally performed in a 1:1000 ratio. The plate was incubated in a 37° C. carbon dioxide cell incubator for 1 h. • c. Nigericin was added to each well, with the final concentration being […]. The plate was incubated in a carbon dioxide cell incubator at 37° C. for 30 min. • d. The medium in the wells was transferred to a new culture plate, and after 5 min of centrifugation at 3000 rpm, the supernatant was transferred to a new 96-well plate. • e. The content of human […] in the collected cell culture supernatant samples was determined with a commercial ELISA kit by following the instructions.
A general note: ELISA stands for enzyme-linked immunosorbent assay.
For the compound `CC#Cc1ccc(-c2nnc(N[C@@H]3CCCN(CCO)C3)c(=O)n2C)c(O)c1` [Compound 33, (R)-3-(2-hydroxy-4-(prop-1-yn-1-yl)phenyl)-6-((1-(2-hydroxyethyl)piperidin-3-yl)amino)-4-methyl-1,2,4-triazin-5(4H)-one], the half-inhibitory concentration (IC50) amounted to 11.5 nM.
Then `CC#Cc1ccc(-c2nnc(N[C@@H]3CCCN(CCCO)C3)cc2C)c(O)c1` [Compound 35, (R)-2-(6-((1-(3-hydroxypropyl)piperidin-3-yl)amino)-4-methylpyridazin-3-yl)-5-(prop-1-yn-1-yl)phenol], with 3.3 nM.
As for `CC#Cc1ccc(-c2nnc(N[C@@H]3CCCN(CC(C)(C)O)C3)cc2C)c(O)c1` [Compound 36, (R)-2-(6-((1-(2-hydroxy-2-methylpropyl)piperidin-3-yl)amino)-4-methylpyridazin-3-yl)-5-(prop-1-yn-1-yl)phenol], the IC50 turned out to be 12.7 nM.
With `CC#Cc1ccc(-c2nnc(N[C@@H]3CCCN(C(C)CO)C3)cc2C)c(O)c1` (stereo partly drawn) [Compound 37, 2-(6-(((3R)-1-(1-hydroxypropan-2-yl)piperidin-3-yl)amino)-4-methylpyridazin-3-yl)-5-(prop-1-yn-1-yl)phenol], the IC50 is 0.8 nM.
Turning to `Cc1cc(N[C@@H]2CCCN(C)C2)nnc1-c1ccc(C=C(F)F)cc1O` [Compound 39, (R)-5-(2,2-difluorovinyl)-2-(4-methyl-6-((1-methylpiperidin-3-yl)amino)pyridazin-3-yl) phenol], the IC50 is 0.3 nM.
For `CC#Cc1ccc(-c2nnc(N[C@@H]3CCCN(C)C3)n3nccc23)c(O)c1` [Compound 40, (R)-2-(7-((1-methylpiperidin-3-yl)amino)pyrazolo[1,5-d][1,2,4]triazin-4-yl)-5-(prop-1-yn-1-yl)phenol], the IC50 is 12.8 nM.
As for `C#Cc1cc(C)c(-c2ccc(N[C@@H]3CCCN(C)C3)nn2)c(O)c1` [Compound 41, (R)-5-ethynyl-3-methyl-2-(6-((1-methylpiperidin-3-yl)amino)pyridazin-3-yl)phenol], the IC50 is 0.3 nM.
In the case of `[2H]C([2H])([2H])N1CCC[C@@H](Nc2nnc(-c3ccc(C#C)cc3O)c(C3CC3)n2)C1` [Compound 87, (R)-2-(5-cyclopropyl-3-((1-(methyl-d3)piperidin-3-yl)amino)-1,2,4-triazin-6-yl)-5-ethynylphenol], the concentration for half-maximal inhibition (IC50) was found to be 0.7 nM.
In the case of `C#Cc1ccc(-c2nnc(N[C@@H]3CCCN(CC)C3)nc2C)c(O)c1` [Compound 91, (R)-2-(3-((1-ethylpiperidin-3-yl)amino)-5-methyl-1,2,4-triazin-6-yl)-5-ethynylphenol], the IC50 came to 0.2 nM.
Then `C#Cc1ccc(-c2nnc(N[C@@H]3CCCN(CC)C3)nc2C2CC2)c(O)c1` [Compound 92, (R)-2-(5-cyclopropyl-3-((1-ethylpiperidin-3-yl)amino)-1,2,4-triazin-6-yl)-5-ethynylphenol], with 0.5 nM.
Under `C#Cc1ccc(-c2nnc(N[C@@H]3CCCN(C4CC4)C3)cc2C)c(O)c1` [Compound 94, (R)-2-(6-((1-cyclopropylpiperidin-3-yl)amino)-4-methylpyridazin-3-yl)-5-ethynylphenol] stands 0.3 nM.
Under `C#Cc1ccc(-c2nnc(N[C@@H]3CCCN(C4CC4)C3)cc2C2CC2)c(O)c1` [Compound 95, (R)-2-(4-cyclopropyl-6-((1-cyclopropylpiperidin-3-yl)amino)pyridazin-3-yl)-5-ethynylphenol] stands 0.4 nM; under `C#Cc1ccc(-c2nnc(N[C@@H]3CCCN(C4CC4)C3)nc2C)c(O)c1` [Compound 96, (R)-2-(3-((1-cyclopropylpiperidin-3-yl)amino)-5-methyl-1,2,4-triazin-6-yl)-5-ethynylphenol], 0.5 nM; under `C#Cc1ccc(-c2nnc(N[C@@H]3CCCN(C4CC4)C3)nc2C2CC2)c(O)c1` [Compound 97, (R)-2-(5-cyclopropyl-3-((1-cyclopropylpiperidin-3-yl)amino)-1,2,4-triazin-6-yl)-5-ethynylphenol], 1 nM.
Regarding `C#Cc1ccc(-c2nnc(N[C@@H]3CCCN(C4CC4)C3)c(=O)n2C)c(O)c1` [Compound 98, (R)-6-((1-cyclopropylpiperidin-3-yl)amino)-3-(4-ethynyl-2-hydroxyphenyl)-4-methyl-1,2,4-triazin-5(4H)-one], the IC50 is 5 nM.
Under `C#Cc1ccc(-c2nnc(N[C@@H]3CCCN(CC)C3)c(=O)n2C2CC2)c(O)c1` [Compound 109, (R)-4-cyclopropyl-6-((1-ethylpiperidin-3-yl)amino)-3-(4-ethynyl-2-hydroxyphenyl)-1,2,4-triazin-5(4H)-one] stands 16 nM; under `Cc1cc(N[C@@H]2CCCN(C)C2)nnc1-c1ccc(C#CC(F)(F)F)cc1O` [Compound 111, (R)-2-(4-methyl-6-((1-methylpiperidin-3-yl)amino)pyridazin-3-yl)-5-(3,3,3-trifluoroprop-1-yn-1-yl)phenol], 1.1 nM.
Under `C#Cc1ccc(-c2nnc(N[C@@H]3CCCN(C)C3)c(=O)n2C(C)C)c(O)c1` [Compound 112, (R)-3-(4-Ethynyl-2-hydroxyphenyl)-4-isopropyl-6-((1-methylpiperidin-3-yl)amino)-1,2,4-triazin-5(4H)-one] stands 12 nM; under `C#Cc1ccc(-c2nnc(N[C@@H]3CCCNC3)cc2C)c(O)c1` [Compound 139, (R)-5-ethynyl-2-(4-methyl-6-(piperidin-3-ylamino)pyridazin-3-yl)phenol], 1.1 nM; under `C#Cc1ccc(-c2nnc(N[C@@H]3CCCNC3)cc2C(F)(F)F)c(O)c1` [Compound 161, (R)-5-ethynyl-2-(6-(piperidin-3-ylamino)-4-trifluoromethylpyridazin-3-yl)phenol], 9.9 nM.
Regarding `C#Cc1ccc(-c2nnc(N[C@@H]3CCCN(CCO)C3)cc2C(F)(F)F)c(O)c1` [Compound 163, (R)-5-ethynyl-2-(6-((1-(2-hydroxyethyl)piperidin-3-yl)amino)-4-trifluoromethylpyridazin-3-yl)phenol], the IC50 was determined as 1.1 nM.
Consider `C#Cc1ccc(-c2nnc(N[C@@H]3CCCN(CCOC)C3)cc2C2CC2)c(O)c1` [Compound 240, (R)-2-(4-cyclopropyl-6-((1-(2-methoxyethyl)piperidin-3-yl)amino)pyridazin-3-yl)-5-ethynylphenol], for which the IC50 was 1.3 nM.
